Drawing on ChEMBL document CHEMBL1130900, “Synthesis and structure-activity relationships of 2-pyridones: II. 8-(Fluoro-substituted pyrrolidinyl)-2-pyridones as antibacterial agents” (Bioorg Med Chem Lett, 1998), this text covers MIC, ED50 and CC50 for six molecules.

One test concerns Klebsiella aerogenes. Put plainly: Antibacterial activity against Enterobacter aerogenes ATCC 13048 was determined. Format: functional.
In test [1] the test system is Staphylococcus aureus. Put plainly: Effective dose against Staphylococcus aureus NCTC-10649M in mice upon subcutaneous administration. The settings on record: sc. Format: functional.
A short description of test [2]: Compound was tested for its effective dose against Escherichia coli JUHL in mice upon peroral administration. Format: functional. The conditions noted are these: Mus musculus, po.
For a further test, the system named is Klebsiella pneumoniae. The test can be described thus: Antibacterial activity against Klebsiella pneumoniae ATCC 8045 was determined. Format: functional.
For test [3], the system named is Staphylococcus aureus. The test can be described thus: Antibacterial activity against Staphylococcus aureus NCTC-10649M was determined. Format: functional.
The next test has as its system Streptococcus equinus. The test can be described thus: Antibacterial activity against Gram-positive Streptococcus bovis A5169 was determined. Format: functional. The settings on record: Streptococcus equinus; read-out: MIC.
The subject of the next test is Enterococcus faecium. The test can be described thus: Antibacterial activity against Enterococcus faecium ATCC 8043 was determined. Format: functional.
In another test the test system is Providencia stuartii. Put plainly: Antibacterial activity against Gram-negative Providencia Stuartii CMX640 was determined. Format: functional.
The test system of test [4] is Escherichia coli. The test can be described thus: Effective dose against Escherichia coli JUHL in mice upon subcutaneous administration. Format: functional. The conditions noted are these: sc.
The subject of test [5] is Staphylococcus aureus. The test can be described thus: Antibacterial activity against Staphylococcus aureus A1775 was determined. Format: functional.
Another test relates to Streptococcus pyogenes. Put plainly: Antibacterial activity against Streptococcus pyogenes EES61 was determined. Format: functional.
Test [6] has as its system Staphylococcus aureus. Put plainly: Effective dose against Staphylococcus aureus NCTC-10649M in mice upon peroral administration. Format: functional. The conditions noted are these: po.
For the next test, the system named is Pseudomonas aeruginosa. Put plainly: Antibacterial activity against Pseudomonas aeruginosa A-5007 was determined. Format: functional.
The test system of test [7] is Escherichia coli. The test can be described thus: Antibacterial activity against Escherichia coli JUHL was determined. Format: functional.
The test system of a further test is DNA gyrase (bacterial). Put plainly: Compound was tested for bacterial DNA gyrase activity. The settings on record: Bacteria.
Where [8] appears, read: Klebsiella pneumoniae, ATCC 8045, read-out: MIC.
Where [9] appears, read: Enterococcus faecium, ATCC 8043, read-out: MIC.
The mark [10] stands for this setting: Providencia stuartii, read-out: MIC.
Setting [11] is: Staphylococcus aureus, read-out: MIC.
Setting [12] is: Streptococcus pyogenes, read-out: MIC.
Where [13] appears, read: Pseudomonas aeruginosa, read-out: MIC.
The mark [14] stands for this setting: Klebsiella aerogenes, ATCC 13048, read-out: MIC.
Where [15] appears, read: Escherichia coli, read-out: MIC.

SMILES strings stand for the structures. Values after ≈ are worked out from the molar mass of the structure shown.

As to `Cc1c(N2C[C@@H](N)[C@H](F)C2)c(F)cn2c(=O)c(C(=O)O)cc(C3CC3)c12` (stereo in doubt; 3a-R,R7), the minimum inhibitory concentration (MIC) worked out at 0.2 µg/mL (≈ 0.55 µM) against Klebsiella aerogenes; 0.02 µg/mL (≈ 0.055 µM) with Klebsiella pneumoniae (setting [8]); 0.05 µg/mL (≈ 0.138 µM) with Staphylococcus aureus [3]; 0.39 µg/mL (≈ 1.07 µM) in the test with Streptococcus equinus; 0.2 µg/mL (≈ 0.55 µM) with Enterococcus faecium (setting [9]); 1.56 µg/mL (≈ 4.29 µM) in the test with Providencia stuartii (setting [10]). The MIC with Staphylococcus aureus [5] (setting [11]) came to 1.56 µg/mL (≈ 4.29 µM); with Streptococcus pyogenes (setting [12]), 0.2 µg/mL (≈ 0.55 µM); in the test with Pseudomonas aeruginosa (setting [13]), 1.56 µg/mL (≈ 4.29 µM). The 50% effective dose (ED50) in the test on Staphylococcus aureus [1] is 4.8 mg/kg/day; in test [2] it was more than 10 mg/kg/day; in the test on Escherichia coli [4], more than 5 mg/kg/day; in the test with Staphylococcus aureus [6], 7.3 mg/kg/day.
As for `Cc1c(N2C[C@H](CF)[C@@H](N)C2)c(F)cn2c(=O)c(C(=O)O)cc(C3CC3)c12`, the MIC was determined as 0.02 µg/mL (≈ 0.053 µM) in the test with Klebsiella aerogenes (setting [14]); 0.002 µg/mL (≈ 0.0053 µM) in the test with Klebsiella pneumoniae (setting [8]); 0.01 µg/mL (≈ 0.0265 µM) in the test with Staphylococcus aureus [3] (setting [11]); 0.39 µg/mL (≈ 1.03 µM) with Streptococcus equinus; 0.2 µg/mL (≈ 0.53 µM) in the test with Enterococcus faecium (setting [9]); 0.78 µg/mL (≈ 2.07 µM) with Providencia stuartii (setting [10]). Also, the minimum inhibitory concentration (MIC) in the test with Escherichia coli [7] (setting [15]) came to 0.1 µg/mL (≈ 0.265 µM); in the test on Staphylococcus aureus [5] (setting [11]), 3.1 µg/mL (≈ 8.21 µM); in the test on Streptococcus pyogenes (setting [12]), 0.2 µg/mL (≈ 0.53 µM); in the test on Pseudomonas aeruginosa (setting [13]), 0.39 µg/mL (≈ 1.03 µM). Moreover, the 50% effective dose (ED50) in the test on Staphylococcus aureus [1] came to 1.2 mg/kg/day; in test [2] it was 3 mg/kg/day; in the test with Escherichia coli [4] it was 0.4 mg/kg/day; with Staphylococcus aureus [6] it was 11.5 mg/kg/day.
Take `Cc1c(N2CCC(CN)(CF)C2)c(F)cn2c(=O)c(C(=O)O)cc(C3CC3)c12` (centres undefined): the median effective dose (ED50) in the test with Staphylococcus aureus [1] is 1.5 mg/kg/day; in [2], more than 10 mg/kg/day; in the test on Escherichia coli [4], 1.5 mg/kg/day; with Staphylococcus aureus [6], 3.8 mg/kg/day. The MIC is 0.1 µg/mL (≈ 0.255 µM) with Klebsiella pneumoniae (setting [8]); 0.02 µg/mL (≈ 0.0511 µM) with Staphylococcus aureus [3] (setting [11]); 0.1 µg/mL (≈ 0.255 µM) in the test with Streptococcus equinus; 0.1 µg/mL (≈ 0.255 µM) in the test on Enterococcus faecium (setting [9]); 0.78 µg/mL (≈ 1.99 µM) with Providencia stuartii (setting [10]); 0.05 µg/mL (≈ 0.128 µM) in the test with Escherichia coli [7] (setting [15]). The values for the minimum inhibitory concentration (MIC) in the test with Staphylococcus aureus [5] (setting [11]), in the test on Streptococcus pyogenes (setting [12]) and in the test on Pseudomonas aeruginosa (setting [13]) were 1.56 µg/mL (≈ 3.99 µM), 0.05 µg/mL (≈ 0.128 µM) and 0.78 µg/mL (≈ 1.99 µM), respectively.
Regarding `Cc1c(N2C[C@@H](CF)[C@H](N)C2)c(F)cn2c(=O)c(C(=O)O)cc(C3CC3)c12`, the MIC in the test on Klebsiella aerogenes (setting [14]) came out at 0.05 µg/mL (≈ 0.132 µM); in the test with Klebsiella pneumoniae (setting [8]), 0.01 µg/mL (≈ 0.0265 µM); in the test on Staphylococcus aureus [3], 0.02 µg/mL (≈ 0.053 µM); in the test with Streptococcus equinus it was 0.1 µg/mL (≈ 0.265 µM); in the test with Enterococcus faecium (setting [9]), 0.1 µg/mL (≈ 0.265 µM); in the test on Providencia stuartii (setting [10]) it was 0.78 µg/mL (≈ 2.07 µM). For the same molecule, the minimum inhibitory concentration (MIC) worked out at 0.02 µg/mL (≈ 0.053 µM) in the test with Escherichia coli [7] (setting [15]), 1.56 µg/mL (≈ 4.13 µM) with Staphylococcus aureus [5] (setting [11]), 0.1 µg/mL (≈ 0.265 µM) in the test with Streptococcus pyogenes (setting [12]) and 0.39 µg/mL (≈ 1.03 µM) in the test with Pseudomonas aeruginosa (setting [13]). Also, the 50% effective dose (ED50) with Staphylococcus aureus [1] worked out at 1.2 mg/kg/day; in the test on Escherichia coli [4], 0.8 mg/kg/day.
As for `Cc1c(N2C[C@@H](CF)[C@H](N)C2)c(F)cn2c(=O)c(C(=O)O)cc(C3CC3)c12` (racemic), the minimal inhibitory concentration (MIC) against Klebsiella aerogenes stood at 0.05 µg/mL (≈ 0.132 µM); in the test on Klebsiella pneumoniae it was 0.005 µg/mL (≈ 0.0132 µM); in the test on Staphylococcus aureus [3], 0.2 µg/mL (≈ 0.53 µM); in the test on Enterococcus faecium it was 0.1 µg/mL (≈ 0.265 µM); in the test on Providencia stuartii it was 0.78 µg/mL (≈ 2.07 µM); in the test with Escherichia coli [7] it was 0.01 µg/mL (≈ 0.0265 µM). Moreover, the MIC in the test on Staphylococcus aureus [5] stood at 3.1 µg/mL (≈ 8.21 µM); in the test with Streptococcus pyogenes, 0.1 µg/mL (≈ 0.265 µM); against Pseudomonas aeruginosa, 0.39 µg/mL (≈ 1.03 µM).
Consider `Cc1c(N2C[C@@H](N)[C@H](C(F)(F)F)C2)c(F)cn2c(=O)c(C(=O)O)cc(C3CC3)c12`, for which the MIC with Klebsiella aerogenes (setting [14]) was 0.2 µg/mL (≈ 0.484 µM); in the test on Klebsiella pneumoniae (setting [8]), 0.05 µg/mL (≈ 0.121 µM); in the test with Staphylococcus aureus [3] (setting [11]), 0.02 µg/mL (≈ 0.0484 µM); in the test on Streptococcus equinus it was 0.39 µg/mL (≈ 0.943 µM); in the test on Enterococcus faecium (setting [9]) it was 0.2 µg/mL (≈ 0.484 µM); in the test on Providencia stuartii (setting [10]) it was 3.1 µg/mL (≈ 7.5 µM). In addition, the MIC is 0.05 µg/mL (≈ 0.121 µM) with Escherichia coli [7] (setting [15]), 1.56 µg/mL (≈ 3.77 µM) in the test with Staphylococcus aureus [5] (setting [11]), 0.2 µg/mL (≈ 0.484 µM) in the test on Streptococcus pyogenes (setting [12]) and 0.78 µg/mL (≈ 1.89 µM) in the test on Pseudomonas aeruginosa (setting [13]). The results for the ED50 in the test on Staphylococcus aureus [1] and in the test on Staphylococcus aureus [6] were 4.8 mg/kg/day and 25.4 mg/kg/day, respectively. This molecule also showed a CC50 in the test with DNA gyrase (bacterial) of 3.8 µg/mL (≈ 9.19 µM).

Broadly, the MIC is the lowest concentration that inhibits growth of the organism. In general, ED50 refers to the dose that gives a 50% effect, or the effect in half of the subjects. Lower therefore signals an effect at a small dose.
